According to patent US20080269238A1, “Thiazolopyrimidine Derivative” (TAKEDA PHARMACEUTICAL COMPANY LIMITED, priority 2004, published 2008):

biological target: T1, HER2 kinase (intracellular domain of HER2) (Homo sapiens, UniProt P04626); assay: Measurement of inhibition activity of HER2 kinase; type: biochemical; conditions: test compound 1.0 μM, poly-Glu:Tyr(4:1) substrate, [γ-32P]ATP, 25° C. 10 minutes, read-out: Inhibition rate (%) in 1.0 μM
T1 construct: FLAG (N); made in house; host or cells: SF-21 insect cells infected with recombinant baculovirus BAC-HER2
Protocol: Cloning of Human HER2 Gene was performed with RT-PCR templating total RNA prepared from MCF 7 cell. To attach Flag tag in N-terminal of HER2, a primer used in RT-PCR was manufactured by adding flag peptide coding sequence and restricted enzyme recognition sequence to the base sequence (2176-3918 in Genbank Accession M11730) which codes a part of intracellular domain of the protein using an information of base sequence of HER2 Gene (Genbank Accession M11730). Base sequence of the primer was shown as below.
(§1) RT reaction was performed using a SuperScript First-Strand Synthesis system for RT-PCR (Invitrogen), and PCR reaction was performed using a KOD-plus kit (TOYOBO). The obtained PCR product was subjected to electrophoresis on agarose gel (1%), and digested with Sal I and Sph I after collecting a DNA fragment amplified by PCR from the gel. The DNA treated with restricted enzymes was subjected to electrophoresis on agarose gel (1%), the obtained DNA fragment was collected, and ligated to a plasmid pFASTBAC1 (Invitrogen) digested with restricted enzymes Sal I and Sph I, resulting that expression plasmid pFB-HER2 was manufactured. Base sequence of inserted fragment was confirmed. As a result, the base sequence of inserted fragment was corresponded with base sequence of the intracellular domain of the HER2 (pp. 2176-3918 in Genbank Accession M11730). Further, a recombinant baculovirus BAC-HER2 was prepared using BAC-TO-BAC Baculovirus Expression System (Invitrogen).
A SF-21 cell was plated with 1×10^6 cells/ml in a Sf-900II SFM medium (Invitrogen) containing 10% of fetal bovine serum (Trace), 50 mg/L of Gentamicin (Invitrogen) and 0.1% of Pluronic F-68 (Invitrogen), and cultured with shaking at 27° C. at 100 rpm using a 2 L meyer. After culturing for 24 hours, 13.4 ml of a recombinant baculovirus BAC-HER2 was added thereto, and further cultured for 3 days. The cultured solution was centrifuged at 2,000 rpm for 5 minutes, and a virus-infected cell was obtained. The cell was washed with phosphate buffered saline (Invitrogen), centrifuged under the same condition, and preserved at −80° C. The freezing preserved cell was melted on ice, suspended with 30 ml of a buffer A (50 mM of tris-buffer containing 20% of glycerol and 0.15M of NaCl (pH 7.4)) to which was added Complete Protease Inhibitor (Behringer), and crushed at 20,000 rpm for 30 seconds three times using Polytron homogenizer (Kinematica). The crushed solution was clarified by centrifugation at 40,000 rpm for 30 minutes, and filtered using a 45 μm filter. The filtrate was passed through a column filled with Anti-FLAG M2 Affinity Gel (Sigma Corp.) in a flow rate of about 0.5 mL/min. The column was washed with a buffer A, and eluted with a buffer A containing 100 μg/mL of FLAG peptide. The eluted solution was concentrated by Vivaspin 20 of MWCO (molecular weight of cut-off) 30K (Vivascience). This concentrated solution was gel-filtrated and purified by a Hi Load Superdex 200 pg 16/60 (Amersham Biosciences) equilibrated with the buffer A. The fraction containing the intracellular domain of HER2 was collected, and glycerol was added thereto to be a 50% of terminal concentration, and then freezing preserved at −80° C.
The test compound dissolved in dimethylsulfoxide (DMSO) was diluted with buffer for measuring the kinase reaction (50 mM of Tris-HCl (pH 7.5), 5 mM of MgCl2, 5 mM MnCl2, 2 mM of dithiothreitol, 0.01% of Tween-20). […]

T1 sequence (P04626 676-1255 limits assumed): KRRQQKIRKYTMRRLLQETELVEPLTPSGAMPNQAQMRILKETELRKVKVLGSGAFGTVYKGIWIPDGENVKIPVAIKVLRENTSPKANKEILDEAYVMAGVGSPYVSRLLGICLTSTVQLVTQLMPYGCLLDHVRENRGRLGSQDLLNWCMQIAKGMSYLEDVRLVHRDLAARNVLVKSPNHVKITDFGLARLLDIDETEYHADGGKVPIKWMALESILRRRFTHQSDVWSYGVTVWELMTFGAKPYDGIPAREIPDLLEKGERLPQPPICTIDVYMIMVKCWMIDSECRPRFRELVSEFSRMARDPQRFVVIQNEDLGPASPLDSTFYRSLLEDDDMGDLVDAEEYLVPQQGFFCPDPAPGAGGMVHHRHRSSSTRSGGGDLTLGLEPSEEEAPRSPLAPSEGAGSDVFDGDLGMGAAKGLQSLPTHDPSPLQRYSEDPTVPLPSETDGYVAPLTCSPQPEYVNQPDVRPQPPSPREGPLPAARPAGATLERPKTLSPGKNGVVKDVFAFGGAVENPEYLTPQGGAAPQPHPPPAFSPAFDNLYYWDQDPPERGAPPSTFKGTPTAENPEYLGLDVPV

| inhibition at 1 µM [%] | Structure (SMILES) |
| --- | --- |
| 92 | OCCNCc1ccc(-c2nc3c(Nc4ccc(OCc5cccc(F)c5)c(Cl)c4)ncnc3s2)cc1 [Example 26, 2-({4-[7-({3-chloro-4-[(3-fluorobenzyl)oxy]phenyl}amino)[1,3]thiazolo[5,4-d]pyrimidin-2-yl]benzyl}amino)ethanol] |
| 96 | COCCNCc1ccc(-c2nc3c(Nc4ccc(F)c(Cl)c4)ncnc3s2)cc1 [Example 39, N-(3-chloro-4-fluorophenyl)-2-(4-{[(2-methoxyethyl)amino]methyl}phenyl) [1,3]thiazolo[5,4-d]pyrimidin-7-amine] |
| 89 | COCCNCCc1ccc(-c2nc3c(Nc4ccc(Oc5ccc(C)nc5)c(C)c4)ncnc3s2)cc1 [Example 41, 2-(4-{2-[(2-methoxyethyl)amino]ethyl}phenyl)-N-{3-methyl-4-[(6-methylpyridin-3-yl)oxy]phenyl}[1,3]thiazolo[5,4-d]pyrimidin-7-amine] |
| 90 | OCCNCc1ccc(-c2nc3c(Nc4ccc(Oc5cccc(C(F)(F)F)c5)c(Cl)c4)ncnc3s2)cc1 [Example 58, 2-({4-[7-({3-chloro-4-[3-(trifluoromethyl)phenoxy]phenyl}amino)[1,3]thiazolo[5,4-d]pyrimidin-2-yl]benzyl}amino)ethanol] |
| 87 | O=C(CO)NCc1ccc(-c2nc3c(Nc4ccc(OCc5ccsc5)c(Cl)c4)ncnc3s2)cc1 [Example 80, N-[4-(7-{[3-chloro-4-(3-thienylmethoxy)phenyl]amino}[1,3]thiazolo[5,-d]pyrimidin-2-yl)benzyl]-2-hydroxyacetamide] |

biological target: T2, EGF receptor kinase (intracellular domain of EGF receptor) (Homo sapiens, UniProt P00533); assay: Measurement of inhibition activity of EGF receptor kinase; type: biochemical; conditions: EGFR kinase; test compound 1.0 μM; biotinyl-poly-Glu:Tyr (4:1), α-screen assay, 25° C. 10 minutes; read-out: Inhibition rate (%) in 1.0 μM
T2 construct: FLAG (N); made in house; host or cells: SF-21 insect cells infected with recombinant baculovirus BAC-EGFR
Protocol: Cloning of Human EGF Receptor Gene was performed with RT-PCR templating total RNA prepared from A431 cell. To attach Flag tag in N-terminal of EGF, a primer used in RT-PCR was manufactured by adding flag peptide coding sequence and restricted enzyme recognition sequence to the base sequence (2182-3810 in Genbank Accession XM—167493) which codes a part of intracellular domain of the protein using an information of base sequence of EGF receptor Gene (Genbank Accession XM—167493). The Base sequence of the primer was shown as below.
as §1, with “and” for “resulting that”, “EGFR” for “the HER2”, “2182-3810” for “2176-3918”, “XM—167493).” for “M11730).”, “BAC-EGFR” for “BAC-HER2”
A SF-21 cell was plated with 1×10^6 cells/ml in a Sf-900II SFM medium (Invitrogen) containing 10% of a fetal bovine serum (Trace), 50 mg/L of Gentamicin (Invitrogen) and 0.1% of Pluronic F-68 (Invitrogen), and cultured with shaking at 27° C. at 100 rpm using a 2 L meyer. After culturing for 24 hours, 13.4 mL of a recombinant baculovirus EGFR was added thereto, and further cultured for 3 days. The cultured solution was centrifuged in 2,000 rpm for 5 minutes, and a virus-infected cell was obtained. The cell was washed with phosphate buffered saline (Invitrogen), centrifuged under the same condition, and then preserved at −80° C. The freezing preserved cell was melted on ice, suspended with 30 mL of a buffer A (50 mM of tris-buffer containing 20% of glycerol and 0.15M of NaCl (pH 7.4)) to which was added Complete Protease Inhibitor (Behringer), and crushed at 20,000 rpm for 30 seconds three times using Polytron homogenizer (Kinematica). The crushed solution was clarified by centrifugation at 40,000 rpm for 30 minutes, and filtered using a 45 μm filter. The filtrate was passed through a column which is filled with Anti-FLAG M2 Affinity Gel (Sigma Corp.) in a flow rate of about 0.5 mL/min. The column was washed with a buffer A, and eluted with a buffer containing 100 μg/ml of FLAG peptide. […]

T2 sequence (P00533 669-1210 limits assumed): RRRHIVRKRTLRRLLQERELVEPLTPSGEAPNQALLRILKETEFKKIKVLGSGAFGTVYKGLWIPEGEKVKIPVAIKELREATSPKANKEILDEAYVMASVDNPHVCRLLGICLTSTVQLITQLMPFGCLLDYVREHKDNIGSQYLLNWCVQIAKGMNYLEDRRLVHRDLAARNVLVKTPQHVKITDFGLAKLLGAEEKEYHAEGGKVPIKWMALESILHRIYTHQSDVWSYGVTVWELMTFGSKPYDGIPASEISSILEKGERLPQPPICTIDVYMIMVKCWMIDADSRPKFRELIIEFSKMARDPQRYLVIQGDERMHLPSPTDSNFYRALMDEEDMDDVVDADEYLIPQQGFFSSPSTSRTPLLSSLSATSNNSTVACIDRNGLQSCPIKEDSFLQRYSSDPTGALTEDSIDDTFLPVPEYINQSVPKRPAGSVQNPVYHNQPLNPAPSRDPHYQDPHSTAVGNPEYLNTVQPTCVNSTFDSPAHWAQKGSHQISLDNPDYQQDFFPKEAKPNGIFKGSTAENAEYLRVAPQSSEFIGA

| inhibition at 1 µM [%] | Structure (SMILES) |
| --- | --- |
| 91 | COCCNC(=O)c1nc2c(Nc3ccc(OCc4cccc(F)c4)c(Cl)c3)ncnc2s1 [Example 20, 7-({3-chloro-4-[(3-fluorobenzyl)oxy]phenyl}amino)-N-(2-methoxyethyl) [1,3]thiazolo[5,4-d]pyrimidine-2-carboxamide] |
| 88 | CS(=O)(=O)CCNCCNC(=O)c1nc2c(Nc3ccc(OCc4cccc(F)c4)c(Cl)c3)ncnc2s1 [Example 25, 7-({3-chloro-4-[(3-fluorobenzyl)oxy]phenyl}amino)-N-(2-{[2-(methylsulfonyl)ethyl]amino}ethyl)[1,3]thiazolo[5,4-d]pyrimidine-2-carboxamide] |
| 81 | CC(=O)NCCCCCc1nc2c(Nc3ccc(OCc4cccc(F)c4)c(Cl)c3)ncnc2s1 [Example 46, N-{5-[7-({3-chloro-4-[(3-fluorobenzyl)oxy]phenyl}amino) [1,3]thiazolo[5,4-d]pyrimidin-2-yl]pentyl}acetamide] |
| 81 | Fc1cccc(COc2ccc(Nc3ncnc4sc(C5CC5)nc34)cc2Cl)c1 [Example 52, N-{3-chloro-4-[(3-fluorobenzyl)oxy]phenyl}-2-cyclopropyl[1,3]thiazolo[5,4-d]pyrimidin-7-amine] |
